Source: PubChem BioAssay (NCI)
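Briefly, cells in 96-well plates were exposed to five compound concentrations for 48 h, and endpoints were estimated by linear interpolation. The concentration for full growth arrest is given as TGI.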

Columns and labels:
Test in all cases: NCI anticancer screen, dose series, 48 h
[1] = system: M14 melanoma
[2] = system: SN12C renal
[3] = system: EKVX NSCLC
[4] = system: HCT-15 colon
[5] = system: KM12 colon
[6] = system: SF-539 CNS
[7] = system: OVCAR-5 ovarian
[8] = system: COLO 205 colon
[9] = system: NCI-H23 lung
[10] = system: LOX IMVI melanoma
[11] = system: OVCAR-4 ovarian
[12] = system: NCI-H226 lung
[13] = system: RPMI-8226 leukemia
[14] = system: 786-0 renal
[15] = system: SF-268 CNS
[16] = system: HCC-2998 colon
[17] = system: BT-549 breast
[18] = system: MDA-MB-231 breast
[19] = system: T-47D breast

Row | SMILES | TGI [1] | TGI [2] | TGI [3] | TGI [4] | TGI [5] | TGI [6] | TGI [7] | TGI [8] | TGI [9] | TGI [10] | TGI [11] | TGI [12] | TGI [13] | TGI [14] | TGI [15] | TGI [16] | TGI [17] | TGI [18] | TGI [19]
1 | CCOC(=O)CCC(NC(=O)c1ccc(NC(OC)c2nc3cc(C(F)(F)F)ccc3nc2-c2ccccc2)cc1)C(=O)OCC (stereo unspecified) | 29 µM | 28.2 µM | 33.6 µM | 34 µM | 19.1 µM | 26.1 µM | 31.5 µM | 35.6 µM | 31.5 µM | 23.4 µM | 55.1 µM | 35 µM | > 74.1 µM | 26.6 µM | 30.9 µM | 30 µM |  |  | 
2 | CCOC(=O)C1=C(OC(OCC)C(CC)[Se]c2ccccc2)CCC1 (stereo unspecified) | 31.6 µM | 47.2 µM | 91.2 µM | 42.9 µM | > 100 µM | 37.4 µM | 69.6 µM | > 100 µM | 27.5 µM | 20.5 µM | 28 µM | 53.5 µM | 53.2 µM | 30.5 µM | 36.8 µM | > 100 µM |  |  | 
3 | Cc1c(/C=N/NC(=S)N2CCCCC2)c(=O)n(-c2ccccc2)n1C | > 100 µM |  | > 100 µM | > 100 µM | > 100 µM | > 100 µM | > 100 µM | > 100 µM | > 100 µM | > 100 µM |  | > 100 µM | > 100 µM | > 100 µM | > 100 µM | > 100 µM | > 100 µM | > 100 µM | 
4 | C=C1C2=C(CCCC2)C(=O)OC12CCCCC2 | > 100 µM | > 100 µM | > 100 µM | > 100 µM | > 100 µM | > 100 µM | > 100 µM | > 100 µM | > 100 µM | > 100 µM | > 100 µM | > 100 µM | > 100 µM | > 100 µM | > 100 µM | > 100 µM |  |  | 
5 | CN1CCc2ccccc2C(C(=O)c2ccc3c(c2)OCO3)C1=O (stereo unspecified) | > 100 µM | > 100 µM |  | > 100 µM | > 100 µM |  |  | > 100 µM | > 100 µM | > 100 µM | > 100 µM | > 100 µM | > 100 µM | > 100 µM | > 100 µM |  |  |  | 
6 | O=[N+]1[C@H](c2ccccc2)[C@H](c2ccccc2)N1[O-] | 29.6 µM | 32.4 µM | 33.8 µM | 24.7 µM | 45.3 µM | 32.7 µM | 35.8 µM | 37.9 µM | 32 µM | 29.2 µM | 59.2 µM | 38.9 µM | 25.4 µM | 26.8 µM | 58.7 µM |  |  | 38.2 µM | 
7 | O=C(/C=C/c1ccccc1O)c1ccccc1Cl | > 100 µM | > 100 µM | > 100 µM | > 100 µM | > 100 µM | > 100 µM | > 100 µM | > 100 µM | > 100 µM | 73.6 µM | > 100 µM | > 100 µM |  | > 100 µM | > 100 µM | > 100 µM |  |  | 
8 | Cc1ccc(-c2cc(-c3ccccc3)c(C#N)c(=O)[nH]2)cc1 | > 100 µM | > 100 µM | > 100 µM | > 100 µM | > 100 µM | > 100 µM | > 100 µM | > 100 µM | > 100 µM | > 100 µM | > 100 µM | > 100 µM | > 100 µM | > 100 µM | > 100 µM | > 100 µM |  |  | 
9 | COc1ccc(C2Cc3cc(OC)c(OC)c(OC)c3C2)cc1 (stereo unspecified) | > 100 µM | > 100 µM | > 100 µM | > 100 µM | > 100 µM | > 100 µM | > 100 µM | > 100 µM | > 100 µM | > 100 µM | > 100 µM | > 100 µM | 98.9 µM | > 100 µM | > 100 µM | > 100 µM |  |  | 
10 | COC(=O)c1ccc2c(c1)CC1(C2)Cc2ccccc2C1=O (stereo unspecified) | 38.6 µM | > 100 µM | 88.1 µM | > 100 µM |  | > 100 µM | > 100 µM | 42.4 µM | > 100 µM | 57.4 µM | > 100 µM | 52.7 µM | 38 µM | > 100 µM | > 100 µM | > 100 µM |  | 84.8 µM | > 100 µM
11 | CCCCOC/N=C(/N)NC#N | > 100 µM | > 100 µM | > 100 µM | 43.8 µM | > 100 µM | > 100 µM | > 100 µM | > 100 µM | > 100 µM | 90.1 µM | > 100 µM | > 100 µM | > 100 µM | > 100 µM | > 100 µM | > 100 µM |  |  | 
12 | CCSC1=N/C(=C\c2ccco2)C(=O)N1 | > 100 µM | > 100 µM | > 100 µM | > 100 µM | > 100 µM |  | > 100 µM | > 100 µM | > 100 µM | > 100 µM |  | > 100 µM | > 100 µM | > 100 µM | > 100 µM |  |  | > 100 µM | 
